According to ChEMBL document CHEMBL4507281, “Data for DCP probe BI-4394” (2021):

Key:
[1] = target: Tyrosine-protein kinase Fyn (Homo sapiens) (UniProt P06241); conditions: Compound concentration 100.0 nM
[2] = target: Tyrosine-protein kinase Yes (Homo sapiens) (UniProt P07947); conditions: Compound concentration 100.0 nM
[3] = target: Protein kinase C theta type (Homo sapiens) (UniProt Q04759); conditions: Compound concentration 100.0 nM
[4] = target: Sodium-dependent serotonin transporter (Homo sapiens) (UniProt P31645); conditions: Compound concentration 10.0 uM
Sodium-dependent serotonin transporter (Homo sapiens), sequence (P31645 whole entry, looked up): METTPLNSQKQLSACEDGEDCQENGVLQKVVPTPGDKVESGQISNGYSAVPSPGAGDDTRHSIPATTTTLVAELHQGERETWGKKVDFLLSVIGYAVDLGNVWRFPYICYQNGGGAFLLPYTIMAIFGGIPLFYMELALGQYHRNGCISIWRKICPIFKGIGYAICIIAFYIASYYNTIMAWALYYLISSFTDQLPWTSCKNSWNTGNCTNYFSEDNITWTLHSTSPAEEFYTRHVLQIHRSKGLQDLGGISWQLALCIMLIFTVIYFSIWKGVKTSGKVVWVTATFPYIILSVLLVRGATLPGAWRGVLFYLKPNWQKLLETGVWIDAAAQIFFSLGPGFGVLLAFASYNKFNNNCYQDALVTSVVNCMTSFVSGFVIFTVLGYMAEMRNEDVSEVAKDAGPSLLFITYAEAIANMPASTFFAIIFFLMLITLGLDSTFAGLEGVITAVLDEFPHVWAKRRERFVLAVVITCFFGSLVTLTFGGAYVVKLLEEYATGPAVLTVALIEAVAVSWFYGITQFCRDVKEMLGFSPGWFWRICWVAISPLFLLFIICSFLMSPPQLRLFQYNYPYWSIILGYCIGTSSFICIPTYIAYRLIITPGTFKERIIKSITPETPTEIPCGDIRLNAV

[5] = target: Serine/threonine-protein kinase Nek10 (Homo sapiens) (UniProt Q6ZWH5); conditions: Compound concentration 100.0 nM
[6] = target: Tyrosine-protein kinase ITK/TSK (Homo sapiens) (UniProt Q08881); conditions: Compound concentration 100.0 nM
[7] = target: Death-associated protein kinase 2 (Homo sapiens) (UniProt Q9UIK4); conditions: Compound concentration 100.0 nM
[8] = target: Serine/threonine-protein kinase TBK1 (Homo sapiens) (UniProt Q9UHD2); conditions: Compound concentration 100.0 nM
[9] = target: cAMP-dependent protein kinase catalytic subunit beta (Homo sapiens) (UniProt P22694); conditions: Compound concentration 100.0 nM
[10] = target: Membrane-associated tyrosine- and threonine-specific cdc2-inhibitory kinase (Homo sapiens) (UniProt Q99640); conditions: Compound concentration 100.0 nM
[11] = target: Cyclin-dependent kinase-like 1 (Homo sapiens) (UniProt Q00532); conditions: Compound concentration 100.0 nM
[12] = target: RAC-alpha serine/threonine-protein kinase (Homo sapiens) (UniProt P31749); conditions: Compound concentration 100.0 nM
[13] = target: Atypical kinase COQ8A, mitochondrial (Homo sapiens) (UniProt Q8NI60); conditions: Compound concentration 100.0 nM
[14] = target: Cyclin-dependent kinase 5 (Homo sapiens) (UniProt Q00535); conditions: Compound concentration 100.0 nM
[15] = system: Receptor-type tyrosine-protein kinase FLT3 (Homo sapiens), P36888 [R834Q]; conditions: Compound concentration 100.0 nM
[16] = target: Dual specificity protein kinase CLK4 (Homo sapiens) (UniProt Q9HAZ1); conditions: Compound concentration 100.0 nM
[17] = target: Tyrosine-protein kinase Mer (Homo sapiens) (UniProt Q12866); conditions: Compound concentration 100.0 nM
[18] = target: Serine/threonine-protein kinase Chk2 (Homo sapiens) (UniProt O96017); conditions: Compound concentration 100.0 nM
[19] = target: Mitogen-activated protein kinase kinase kinase 14 (Homo sapiens) (UniProt Q99558); conditions: Compound concentration 100.0 nM
[20] = target: Serine/threonine-protein kinase 17B (Homo sapiens) (UniProt O94768); conditions: Compound concentration 100.0 nM
[21] = target: Histamine H3 receptor (Homo sapiens) (UniProt Q9Y5N1); conditions: Compound concentration 10.0 uM
Histamine H3 receptor (Homo sapiens), sequence (Q9Y5N1 whole entry): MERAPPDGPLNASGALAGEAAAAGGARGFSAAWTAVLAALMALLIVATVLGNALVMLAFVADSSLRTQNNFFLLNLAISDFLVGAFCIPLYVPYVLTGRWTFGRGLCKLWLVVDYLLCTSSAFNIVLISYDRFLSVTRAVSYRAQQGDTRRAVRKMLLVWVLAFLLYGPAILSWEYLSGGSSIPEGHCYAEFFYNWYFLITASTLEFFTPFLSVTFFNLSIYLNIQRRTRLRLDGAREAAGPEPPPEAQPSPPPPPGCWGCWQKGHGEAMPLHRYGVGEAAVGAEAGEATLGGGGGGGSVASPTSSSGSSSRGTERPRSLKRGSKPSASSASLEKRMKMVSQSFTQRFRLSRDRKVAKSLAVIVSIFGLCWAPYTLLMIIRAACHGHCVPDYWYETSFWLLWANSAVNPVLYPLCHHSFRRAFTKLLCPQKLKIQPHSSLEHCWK

[22] = target: Receptor-type tyrosine-protein kinase FLT3 (Homo sapiens) (UniProt P36888); conditions: Compound concentration 100.0 nM
[23] = target: Serine/threonine-protein kinase LATS2 (Homo sapiens) (UniProt Q9NRM7); conditions: Compound concentration 100.0 nM
[24] = target: GABA-A receptor; anion channel (Rattus norvegicus) (UniProt O09028+P15431+P18506+P18508+P19969+P20236+P23574+P23576+P28471+P28473+P30191+P62813+P63079+P63138+Q91ZM7+Q9ES14); conditions: Compound concentration 10.0 uM
[25] = target: Protein-tyrosine kinase 2-beta (Homo sapiens) (UniProt Q14289); conditions: Compound concentration 100.0 nM
Protein-tyrosine kinase 2-beta (Homo sapiens), sequence (Q14289 whole entry, looked up): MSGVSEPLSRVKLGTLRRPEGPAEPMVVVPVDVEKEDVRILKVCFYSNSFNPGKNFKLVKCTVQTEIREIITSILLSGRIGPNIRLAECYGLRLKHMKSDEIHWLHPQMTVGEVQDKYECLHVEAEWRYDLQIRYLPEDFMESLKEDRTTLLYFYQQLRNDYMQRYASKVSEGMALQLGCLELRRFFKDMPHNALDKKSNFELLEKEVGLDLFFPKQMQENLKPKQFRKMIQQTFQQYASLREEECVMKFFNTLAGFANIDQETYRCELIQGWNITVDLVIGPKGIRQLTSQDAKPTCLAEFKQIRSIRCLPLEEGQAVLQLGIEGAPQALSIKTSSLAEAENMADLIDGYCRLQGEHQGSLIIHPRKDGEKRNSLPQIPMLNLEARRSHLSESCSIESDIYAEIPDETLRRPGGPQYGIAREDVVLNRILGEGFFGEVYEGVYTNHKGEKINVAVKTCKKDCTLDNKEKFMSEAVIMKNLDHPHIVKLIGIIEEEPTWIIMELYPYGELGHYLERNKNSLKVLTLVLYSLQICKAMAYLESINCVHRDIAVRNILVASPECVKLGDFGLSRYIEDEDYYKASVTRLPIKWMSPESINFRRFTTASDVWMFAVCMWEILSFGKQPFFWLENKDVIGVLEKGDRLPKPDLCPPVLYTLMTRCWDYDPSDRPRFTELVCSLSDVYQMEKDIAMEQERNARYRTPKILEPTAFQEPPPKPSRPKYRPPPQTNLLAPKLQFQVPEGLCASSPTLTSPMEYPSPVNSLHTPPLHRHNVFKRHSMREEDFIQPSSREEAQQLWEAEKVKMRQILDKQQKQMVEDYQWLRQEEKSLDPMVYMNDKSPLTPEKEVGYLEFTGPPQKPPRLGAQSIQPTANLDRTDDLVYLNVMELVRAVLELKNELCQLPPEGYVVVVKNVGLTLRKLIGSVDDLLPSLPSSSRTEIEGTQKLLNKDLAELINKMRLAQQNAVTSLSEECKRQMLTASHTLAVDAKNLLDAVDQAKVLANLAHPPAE

[26] = target: Serine/threonine-protein kinase PLK4 (Homo sapiens) (UniProt O00444); conditions: Compound concentration 100.0 nM
Serine/threonine-protein kinase PLK4 (Homo sapiens), sequence (O00444 whole entry): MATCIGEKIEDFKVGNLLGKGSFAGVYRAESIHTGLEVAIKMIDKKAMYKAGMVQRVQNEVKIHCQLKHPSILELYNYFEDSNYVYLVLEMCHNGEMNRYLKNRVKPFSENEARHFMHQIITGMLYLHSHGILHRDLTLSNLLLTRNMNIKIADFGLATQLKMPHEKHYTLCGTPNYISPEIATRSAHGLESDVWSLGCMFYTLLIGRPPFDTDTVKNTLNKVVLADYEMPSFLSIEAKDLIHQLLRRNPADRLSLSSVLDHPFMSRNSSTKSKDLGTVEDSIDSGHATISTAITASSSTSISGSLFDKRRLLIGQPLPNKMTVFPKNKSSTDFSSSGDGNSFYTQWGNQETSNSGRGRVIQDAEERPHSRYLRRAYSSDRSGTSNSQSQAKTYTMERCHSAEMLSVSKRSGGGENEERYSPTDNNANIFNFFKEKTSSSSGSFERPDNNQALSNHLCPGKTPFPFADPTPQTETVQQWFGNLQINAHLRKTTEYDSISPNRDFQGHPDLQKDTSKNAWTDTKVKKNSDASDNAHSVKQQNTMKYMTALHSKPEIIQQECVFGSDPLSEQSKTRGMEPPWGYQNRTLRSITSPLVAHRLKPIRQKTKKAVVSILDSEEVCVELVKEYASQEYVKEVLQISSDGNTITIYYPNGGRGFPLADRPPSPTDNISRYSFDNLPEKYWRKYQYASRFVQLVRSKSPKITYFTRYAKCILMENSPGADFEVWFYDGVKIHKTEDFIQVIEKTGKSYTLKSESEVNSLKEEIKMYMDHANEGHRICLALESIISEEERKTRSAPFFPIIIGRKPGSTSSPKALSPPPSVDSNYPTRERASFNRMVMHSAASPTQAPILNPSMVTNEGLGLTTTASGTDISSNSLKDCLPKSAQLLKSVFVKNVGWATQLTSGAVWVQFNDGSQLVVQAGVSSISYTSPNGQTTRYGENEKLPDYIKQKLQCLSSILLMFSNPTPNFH

[27] = target: Inhibitor of nuclear factor kappa-B kinase subunit epsilon (Homo sapiens) (UniProt Q14164); conditions: Compound concentration 100.0 nM
[28] = target: Serine/threonine-protein kinase RIO1 (Homo sapiens) (UniProt Q9BRS2); conditions: Compound concentration 100.0 nM
Serine/threonine-protein kinase RIO1 (Homo sapiens), sequence (Q9BRS2 whole entry): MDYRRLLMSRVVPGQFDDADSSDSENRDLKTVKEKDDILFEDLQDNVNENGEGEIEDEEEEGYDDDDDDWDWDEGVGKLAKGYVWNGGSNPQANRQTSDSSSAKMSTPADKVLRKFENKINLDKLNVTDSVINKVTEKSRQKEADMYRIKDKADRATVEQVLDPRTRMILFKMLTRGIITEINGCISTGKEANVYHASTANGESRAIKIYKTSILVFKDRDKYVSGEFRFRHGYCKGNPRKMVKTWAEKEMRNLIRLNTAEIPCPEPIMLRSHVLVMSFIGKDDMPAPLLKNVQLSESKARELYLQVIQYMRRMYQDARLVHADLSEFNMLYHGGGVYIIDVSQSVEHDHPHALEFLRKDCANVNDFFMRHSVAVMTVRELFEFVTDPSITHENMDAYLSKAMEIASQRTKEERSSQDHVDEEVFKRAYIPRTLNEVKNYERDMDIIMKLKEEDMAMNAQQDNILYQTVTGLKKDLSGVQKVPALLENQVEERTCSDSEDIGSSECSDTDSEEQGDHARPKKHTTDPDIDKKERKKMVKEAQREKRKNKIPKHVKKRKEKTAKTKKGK

[29] = target: Bone morphogenetic protein receptor type-1B (Homo sapiens) (UniProt O00238); conditions: Compound concentration 100.0 nM
[30] = target: Tyrosine-protein kinase JAK1 (Homo sapiens) (UniProt P23458); conditions: Compound concentration 100.0 nM
[31] = target: Serine/threonine-protein kinase PAK 6 (Homo sapiens) (UniProt Q9NQU5); conditions: Compound concentration 100.0 nM
[32] = system: Epidermal growth factor receptor (Homo sapiens), P00533 [G719C]; conditions: Compound concentration 100.0 nM
[33] = target: Cyclin-dependent kinase 8 (Homo sapiens) (UniProt P49336); conditions: Compound concentration 100.0 nM
[34] = target: Cyclin-dependent kinase 13 (Homo sapiens) (UniProt Q14004); conditions: Compound concentration 100.0 nM
[35] = target: Non-receptor tyrosine-protein kinase TYK2 (Homo sapiens) (UniProt P29597); conditions: Compound concentration 100.0 nM
[36] = target: Serine/threonine-protein kinase pim-3 (Homo sapiens) (UniProt Q86V86); conditions: Compound concentration 100.0 nM
[37] = system: Epidermal growth factor receptor (Homo sapiens), P00533 [UNDEFINED MUTATION]; conditions: Compound concentration 100.0 nM
[38] = target: Proto-oncogene tyrosine-protein kinase ROS (Homo sapiens) (UniProt P08922); conditions: Compound concentration 100.0 nM
[39] = target: Serine/threonine-protein kinase ULK1 (Homo sapiens) (UniProt O75385); conditions: Compound concentration 100.0 nM
[40] = target: Cyclin-dependent kinase 7 (Homo sapiens) (UniProt P50613); conditions: Compound concentration 100.0 nM
[41] = target: Tyrosine-protein kinase Srms (Homo sapiens) (UniProt Q9H3Y6); conditions: Compound concentration 100.0 nM
Tyrosine-protein kinase Srms (Homo sapiens), sequence (Q9H3Y6 whole entry): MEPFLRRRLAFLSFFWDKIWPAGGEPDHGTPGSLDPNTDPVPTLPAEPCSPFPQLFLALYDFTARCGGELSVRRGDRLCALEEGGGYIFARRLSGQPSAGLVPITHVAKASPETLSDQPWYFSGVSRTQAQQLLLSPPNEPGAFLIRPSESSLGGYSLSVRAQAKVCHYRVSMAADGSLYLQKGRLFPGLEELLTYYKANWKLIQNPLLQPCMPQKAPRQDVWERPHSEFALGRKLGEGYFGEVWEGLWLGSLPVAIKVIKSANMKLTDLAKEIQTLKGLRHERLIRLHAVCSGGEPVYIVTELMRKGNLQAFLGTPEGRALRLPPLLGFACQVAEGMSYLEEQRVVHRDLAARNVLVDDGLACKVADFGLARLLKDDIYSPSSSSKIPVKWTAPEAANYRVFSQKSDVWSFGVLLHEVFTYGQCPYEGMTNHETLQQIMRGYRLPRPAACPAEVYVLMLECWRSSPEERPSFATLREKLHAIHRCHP

[42] = system: Mast/stem cell growth factor receptor Kit (Homo sapiens), P10721 [L576P]; conditions: Compound concentration 100.0 nM
[43] = target: cAMP-dependent protein kinase catalytic subunit PRKX (Homo sapiens) (UniProt P51817); conditions: Compound concentration 100.0 nM
cAMP-dependent protein kinase catalytic subunit PRKX (Homo sapiens), sequence (P51817 whole entry): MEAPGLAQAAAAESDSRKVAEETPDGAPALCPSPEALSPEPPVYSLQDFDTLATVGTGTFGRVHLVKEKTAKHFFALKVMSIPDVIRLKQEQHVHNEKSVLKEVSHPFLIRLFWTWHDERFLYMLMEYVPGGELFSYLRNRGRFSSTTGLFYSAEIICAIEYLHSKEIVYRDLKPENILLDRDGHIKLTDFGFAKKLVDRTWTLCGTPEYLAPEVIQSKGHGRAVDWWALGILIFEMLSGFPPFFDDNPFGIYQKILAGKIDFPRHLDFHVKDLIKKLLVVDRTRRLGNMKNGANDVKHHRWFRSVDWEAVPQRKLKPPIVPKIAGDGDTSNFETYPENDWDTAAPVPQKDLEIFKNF

[44] = target: Transient receptor potential cation channel subfamily M member 6 (Homo sapiens) (UniProt Q9BX84); conditions: Compound concentration 100.0 nM

Tyrosine-protein kinase Yes (Homo sapiens), sequence (P07947 2-543 limits assumed): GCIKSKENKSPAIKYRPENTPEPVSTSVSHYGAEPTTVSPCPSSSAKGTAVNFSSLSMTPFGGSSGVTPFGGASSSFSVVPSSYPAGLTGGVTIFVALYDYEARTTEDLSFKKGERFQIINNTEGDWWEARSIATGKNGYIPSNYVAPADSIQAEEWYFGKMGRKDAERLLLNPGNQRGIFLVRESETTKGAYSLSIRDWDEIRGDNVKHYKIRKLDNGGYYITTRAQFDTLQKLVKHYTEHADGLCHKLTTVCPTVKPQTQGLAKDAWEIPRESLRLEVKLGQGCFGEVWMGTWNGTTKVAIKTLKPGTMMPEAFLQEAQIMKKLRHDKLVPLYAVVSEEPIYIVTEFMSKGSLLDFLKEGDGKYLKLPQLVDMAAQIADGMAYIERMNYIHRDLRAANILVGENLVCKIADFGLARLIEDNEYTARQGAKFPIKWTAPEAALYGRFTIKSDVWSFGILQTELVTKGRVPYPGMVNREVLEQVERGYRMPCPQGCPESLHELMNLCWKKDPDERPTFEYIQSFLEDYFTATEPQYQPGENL

Work on Cn1nc(C(=O)NCc2ccc(C(=O)O)cc2)cc1-c1ccc2[nH]ccc2c1 [BI 4395] yielded a residual activity [1] of 98%, a residual activity [2] of 84% and a residual activity [3] of 99%. The inhibition [4] was 5.3%, the residual activity [5] was 58% and the residual activity [6] was 85%. It also gave a residual activity [7] of 96%, a residual activity [8] of 77% and a residual activity [9] of 98%. For the same compound, the residual activity [10] was 93%, the residual activity [11] was 70% and the residual activity [12] was 100%. The residual activity [13] was 100%, the residual activity [14] was 90% and the residual activity [15] was 63%. The residual activity [16] was 69%, the residual activity [17] was 40% and the residual activity [18] was 100%. For the same compound, the residual activity [19] was 85%, the residual activity [20] was 91% and the inhibition [21] was -4.12%. It also gave a residual activity [22] of 95%, a residual activity [23] of 100% and an inhibition [24] of 29.1%. For the same compound, the residual activity [25] was 96%, the residual activity [26] was 61% and the residual activity [27] was 100%. The residual activity [28] was 76%, the residual activity [29] was 88% and the residual activity [30] was 93%. It also gave a residual activity [31] of 96%, a residual activity [32] of 76% and a residual activity [33] of 100%. The residual activity [34] was 72%, the residual activity [35] was 82% and the residual activity [36] was 91%. It also gave a residual activity [37] of 100%, a residual activity [38] of 74% and a residual activity [39] of 83%. The residual activity [40] was 100%, the residual activity [41] was 81% and the residual activity [42] was 59%. It also gave a residual activity [43] of 71% and a residual activity [44] of 79%.
With CCOC(=O)c1cc2cc(-c3cc(C(=O)NCc4ccc(C(=O)O)cc4)nn3C)ccc2[nH]1 [BI 4394] the residual activity [1] was 100%, the residual activity [2] was 100% and the residual activity [3] was 97%. The inhibition [4] was -0.14%, the residual activity [5] was 90% and the residual activity [6] was 100%. It also gave a residual activity [7] of 92%, a residual activity [8] of 84% and a residual activity [9] of 86%. For the same compound, the residual activity [10] was 100%, the residual activity [11] was 77% and the residual activity [12] was 100%. For the same compound, the residual activity [13] was 100%, the residual activity [14] was 94% and the residual activity [15] was 78%. It also gave a residual activity [16] of 89%, a residual activity [17] of 100% and a residual activity [18] of 100%. For the same compound, the residual activity [19] was 58%, the residual activity [20] was 100% and the inhibition [21] was 8.18%. For the same compound, the residual activity [22] was 98%, the residual activity [23] was 74% and the inhibition [24] was 1.07%. The residual activity [25] was 100%, the residual activity [26] was 82% and the residual activity [27] was 66%. The residual activity [28] was 96%, the residual activity [29] was 96% and the residual activity [30] was 100%. It also gave a residual activity [31] of 99%, a residual activity [32] of 100% and a residual activity [33] of 62%. For the same compound, the residual activity [34] was 83%, the residual activity [35] was 90% and the residual activity [36] was 99%. It also gave a residual activity [37] of 100%, a residual activity [38] of 97% and a residual activity [39] of 87%. The residual activity [40] was 76%, the residual activity [41] was 90% and the residual activity [42] was 100%. It also gave a residual activity [43] of 100% and a residual activity [44] of 95%.
